# Columns and labels:
# [1] = Self-assessment of pain before and after endodontic treatment (Control vs Experimental); type: in vivo, patients; conditions: for self-assessed pain, 6 hours / self-assessed pain, 24 hours / self-assessed pain, 48 hours / self-assessed pain, 120 hours / self-assessed pain, Before: scale of 1-10; for self-assessed pain, 6 hours: 6 hours following endodontic treatment; for self-assessed pain, 24 hours: 24 hours following endodontic treatment; for self-assessed pain, 48 hours: 48 hours following endodontic treatment; for self-assessed pain, 120 hours: 120 hours following endodontic treatment; for self-assessed pain, Before: prior to endodontic treatment (baseline)
# Protocol: Use of TCA during endodontic treatment is associated with decreased incidence of pain following endodontic treatment. Without wishing to be bound by the theory, it is believed that the TCA composition eliminates unmyelinated C fibers in the apical pulp, particularly in mandibular molars. To assess the decreased pain, individuals were asked to provide a self-assessment, on a scale of 1-10, of pain prior to endodontic treatment, and 6, 24, 48, and 120 hours following endodontic treatment. Patients were divided into two groups, one group (Control, N=9) receiving standard endodontic treatment including sodium hypochlorite as the primary irrigant, with occasional (as necessary) flushes with 17% EDTA, and one group (Experimental, N=10) receiving endodontic treatment including the composition described herein as a pre-treatment applied to pulp to facilitate navigating calcified canals and after initial shaping with patency. The experimental group received sodium hypochlorite irrigation and, as necessary, EDTA flushing, as in the control group.
# dental pulp = conditions: cited from earlier work
# [2] = Experiments with TCA in endodontic treatment including sodium hypochlorite (clinical and radiographic observations); type: in vivo
# From the text: FIGS. 7 and 8 show radiographic images from prior to (FIG. 7) and following (FIG. 8) endodontic treatment with a TCA composition as described herein. The image in FIG. 7 is of a tooth that had previously undergone endodontic treatment, but without TCA as a debridement solution.
# [3] = cited from earlier work
# [4] = endodontic treatment including sodium hypochlorite
# [5] = endodontic treatment including sodium hypochlorite, particularly in lower molar cases
compound,measurement,setting,value
"OCl [Control, sodium hypochlorite, reference compound]","self-assessed pain, 6 hours",[1],1
same,"self-assessed pain, 24 hours",[1],0.89
same,"self-assessed pain, 48 hours",[1],1.44
same,"self-assessed pain, 120 hours",[1],0.56
same,"self-assessed pain, Before",[1],2.67
same,amount of time that the treatment must be used,dental pulp; known debridement method,10 min
same,time to dissolve dental pulp,dental pulp; strength of 6.25%,≥ 10 min
"O=C(O)C(Cl)(Cl)Cl [TCA, trichloroacetic acid]",subjective levels of pain following endodontic treatment compared to control,"[1]; compared to the gold standard control, sodium hypochlorite",reduced subjective levels of pain
same,self-reported pain level at 6 hours,"[1]; patients presenting with necrosis, 6 hours following treatment",0.5
same,self-reported pain level at 24 hours,"[1]; patients presenting with necrosis, 24 hours following treatment",0.25
same,self-reported pain level at 48 hours,"[1]; patients presenting with necrosis, 48 hours following treatment",0
same,self-reported pain level at 120 hours,"[1]; patients presenting with necrosis, 120 hours following treatment",0
same,self-reported pain level before treatment,"[1]; patients presenting with necrosis, before treatment (baseline)",4.5
same,"self-assessed pain, 6 hours",[1],0.7
same,"self-assessed pain, 24 hours",[1],0.5
same,"self-assessed pain, 48 hours",[1],0.4
same,"self-assessed pain, 120 hours",[1],0.2
same,"self-assessed pain, Before",[1],3.1
same,radiographic appearance of retreated root (FIG. 8),[2]; after endodontic retreatment with TCA,thicker irregular deformed material that fully fills the root tip
same,bleeding,[2]; [4],lessened bleeding or elimination of bleeding altogether
same,cleanliness of apex,[2]; [4],cleaner apex
same,inflammation,[2]; [5],less inflammation
same,pain,[2]; [5],reduced pain
same,"access of debridement composition to microscopic root canal branches, fins, and anastomoses",[2]; in vivo,improved access
same,removal of debris and material from prior endodontic treatment,[2]; in vivo,improved removal of debris
same,pKa,[3],~0.6
